Laboratory results as given in US20200068890A1 (Person to Whom the Inventor is Obligated to Assign, priority 2017, published 2020).

These compounds were tested on T1, A. thaliana DHDPS (assay: DHDPS-DHDPR coupled assay, dose response inhibitor assay).
T1 construct: AtDHDPS|10|0.00008; no borders, domain or tags given
Format: biochemical, Arabidopsis thaliana
Protocol: DHDPS enzyme activity was determined using the coupled assay in a Cary 4000 UV/Vis spectrophotometer at 340 nm in 1 cm acrylic cuvettes. A master mix was prepared for each reaction as per Table 1. Reaction mixtures containing enzymes, pyruvate, buffer and NADPH were incubated at 30° C. for 12 mins before the addition of ASA to initiate the reaction. The oxidation of NADPH to NADP^+ was then monitored at 340 nm at 30° C. as a function of time. The initial rate (ΔA340·min^−1) was calculated from the slope of the linear portion of the A340 versus time profile. All experiments were carried out in triplicate. The enzyme kinetic parameters, including KM values, were determined using the Michaelis-Menten equation (Equation 1). Unless otherwise stated, all kinetic data were fitted using the built-in equations in GraphPad Prism.
To determine/C50 values for the inhibitors, A. thaliana DHDPS enzyme activity was measured using the coupled assay (detailed above) in the presence of increasing concentrations of inhibitor. The initial rate was then plotted as a function of the log 10 of the inhibitor concentration and the/C50 determined according to Equation 2.

Compared with COc1ccc(/C=C2\SC(=O)N(CC(=O)O)C2=O)c(OC)c1 [Compound 17, (Z)-2-(5-(2,4-Dimethoxybenzylidene)-2,4-dioxothiazolidin-3-yl)acetic Acid], COc1cccc(/C=C2\SC(=O)N(CC(=O)O)C2=O)c1OC [Compound 22, 2-(5-(2,3-Dimethoxybenzylidene)-2,4-dioxothiazolidin-3-yl) acetic Acid] is 1.6-fold lower in IC50: 173 µM for the first, 108 µM for the second.

Nc1ccc(/C=C2\SC(=O)N(CC(=O)O)C2=O)cc1 [Compound 11, (Z)-2-(5-(4-Aminobenzylidene)-2,4-dioxothiazolidin-3-yl)acetic Acid] and O=C(O)CN1C(=O)S/C(=C\c2ccc(O)cc2)C1=O [Compound 12, (Z)-2-(5-(4-Hydroxybenzylidene)-2,4-dioxothiazolidin-3-yl)acetic Acid] are within 1.5-fold of each other in IC50: 153 µM for the first, 103 µM for the second.

O=C(O)CN1C(=O)S/C(=C\c2ccc3ccccc3n2)C1=O [Compound 40, 2-(2,4-Dioxo-5-(quinolin-2-ylmethylene)thiazolidin-3-yl)acetic Acid] and O=C(O)CN1C(=O)S/C(=C\c2ccc3ccccc3c2)C1=O [Compound 39, (Z)-2-(5-(Naphthalen-2-ylmethylene)-2,4-dioxothiazolidin-3-yl)acetic Acid] are within 1.5-fold of each other in IC50: 110 µM for the first, 76.1 µM for the second.

Going from COc1ccc(/C=C2\SC(=O)N(CCCC(=O)O)C2=O)cc1 [Compound 51, (Z)-4-(5-(4-Methoxybenzylidene)-2,4-dioxothiazolidin-3-yl)butanoic Acid] to COc1ccc(/C=C2\SC(=O)N(CCC(=O)O)C2=O)cc1 [Compound 50, (Z)-3-(5-(4-Methoxybenzylidene)-2,4-dioxothiazolidin-3-yl)propanoic Acid], the IC50 rises from 66.8 µM to greater than 250 µM. The first is the more potent here.

First: CSc1ccc(/C=C2\SC(=O)N(CC(=O)O)C2=O)cc1 [Compound 28, (Z)-2-(5-(4-(Methylthio)benzylidene)-2,4-dioxothiazolidin-3-yl)acetic Acid]
Second: Cc1ccc(/C=C2\SC(=O)N(CC(=O)O)C2=O)cc1 [Compound 10, (Z)-2-(5-(4-Methylbenzylidene)-2,4-dioxothiazolidin-3-yl)acetic Acid]
The IC50 of the first is 1.6-fold higher: 125 µM for the first, 80.1 µM for the second. The second is the more potent here.

Compared with O=C(O)CN1C(=O)S/C(=C\c2ccc(O)c(Cl)c2)C1=O [Compound 13, (Z)-2-(5-(3-Chloro-4-hydroxybenzylidene)-2,4-dioxothiazolidin-3-yl)acetic Acid], O=C(O)CN1C(=O)S/C(=C\c2cccc(Cl)c2)C1=O [Compound 7, (Z)-2-(5-(3-Chlorobenzylidene)-2,4-dioxothiazolidin-3-yl)acetic Acid] is 2.6-fold lower in IC50: 316 µM for the first, 121 µM for the second.

O=C(O)CN1C(=O)S/C(=C\c2ccc(Cl)cc2)C1=O [Compound 8, (Z)-2-(5-(4-Chlorobenzylidene)-2,4-dioxothiazolidin-3-yl)acetic Acid] and O=C(O)CN1C(=O)S/C(=C\c2ccc(Br)cc2)C1=O [Compound 9, (Z)-2-(5-(4-Bromobenzylidene)-2,4-dioxothiazolidin-3-yl)acetic Acid] are within 1.5-fold of each other in IC50: 84.3 µM for the first, 74 µM for the second.

COc1ccc(CC2SC(=O)N(CC(=O)O)C2=O)cc1 (stereo not shown) [Compound 52] and COc1ccc(/C=C2\SC(=S)N(CC(=O)O)C2=O)cc1 [Compound 43, (Z)-2-(5-(4-Methoxybenzylidene)-4-oxo-2-thioxothiazolidin-3-yl)acetic Acid] cannot be ordered by IC50: greater than 250 µM for the first, 540 µM for the second.

Going from O=C(O)CN1C(=O)S/C(=C\c2ccccc2)C1=O [Compound 2, (Z)-2-(5-Benzylidene-2,4-dioxothiazolidin-3-yl)acetic Acid] to O=C(O)CN1C(=O)S/C(=C\c2ccccc2Cl)C1=O [Compound 6, (Z)-2-(5-(2-Chlorobenzylidene)-2,4-dioxothiazolidin-3-yl)acetic Acid], the IC50 rises from 80.1 µM to 137 µM (1.7-fold). The first is the more potent here.

O=C(O)CN1C(=O)S/C(=C\c2ccc(OC(F)(F)F)cc2)C1=O [Compound 27, (Z)-2-(2,4-Dioxo-5-(4-(trifluoromethoxy)benzylidene)thiazolidin-3-yl)acetic Acid] and O=C(O)CN1C(=O)S/C(=C\c2ccc(C(F)(F)F)cc2)C1=O [Compound 29, (Z)-2-(2,4-Dioxo-5-(4-(trifluoromethyl)benzylidene)thiazolidin-3-yl)acetic Acid] are within 1.5-fold of each other in IC50: 97.8 µM for the first, 122 µM for the second.

COc1ccc(/C=C2\NC(=S)N(CC(=O)O)C2=O)cc1 [Compound 44, (Z)-2-(4-(4-Methoxybenzylidene)-5-oxo-2-thioxoimidazolidin-1-yl)acetic Acid] and COc1ccc(/C=C2\NC(=S)NC2=O)cc1 [Compound 47, (Z)-5-(4-Methoxybenzylidene)-2-thioxoimidazolidin-4-one] are within 1.5-fold of each other in IC50: 222 µM for the first, 323 µM for the second.

O=C(O)CN1C(=O)S/C(=C\c2ccsc2)C1=O [Compound 31, (Z)-2-(2,4-Dioxo-5-(thiophen-3-ylmethylene)thiazolidin-3-yl)acetic Acid] and O=C(O)CN1C(=O)S/C(=C\c2cccs2)C1=O [Compound 30, (Z)-2-(2,4-Dioxo-5-(thiophen-2-ylmethylene)thiazolidin-3-yl)acetic Acid] are within 1.5-fold of each other in IC50: 81.8 µM for the first, 71.6 µM for the second.

N#Cc1ccc(/C=C2\SC(=O)N(CC(=O)O)C2=O)cc1 [Compound 24, (Z)-2-(5-(4-Cyanobenzylidene)-2,4-dioxothiazolidin-3-yl)acetic Acid] and CCOc1ccc(/C=C2\SC(=O)N(CC(=O)O)C2=O)cc1 [Compound 26, (Z)-2-(5-(4-Ethoxybenzylidene)-2,4-dioxothiazolidin-3-yl)acetic Acid] are within 1.5-fold of each other in IC50: 79.6 µM for the first, 71.6 µM for the second.

Compared with O=C(O)CN1C(=O)S/C(=C\c2ccccn2)C1=O [Compound 34, (Z)-2-(2,4-Dioxo-5-(pyridin-2-ylmethylene)thiazolidin-3-yl)acetic Acid], O=C(O)CN1C(=O)S/C(=C\c2cccnc2)C1=O [Compound 35, (Z)-2-(2,4-Dioxo-5-(pyridin-3-ylmethylene)thiazolidin-3-yl)acetic Acid] is 1.7-fold higher in IC50: 80.4 µM for the first, 138 µM for the second.

O=C(O)CN1C(=O)S/C(=C\c2ccc(C(=O)O)cc2)C1=O [Compound 25, (Z)-4-((3-(Carboxymethyl)-2,4-dioxothiazolidin-5-ylidene)methyl)benzoic Acid] and CC(=O)Nc1ccc(/C=C2\SC(=O)N(CC(=O)O)C2=O)cc1 [Compound 20, (Z)-2-(5-(4-Acetamidobenzylidene)-2,4-dioxothiazolidin-3-yl)acetic Acid] are within 1.5-fold of each other in IC50: 69.8 µM for the first, 68.4 µM for the second.

First: CN(C)c1ccc(/C=C2\SC(=O)N(CC(=O)O)C2=O)cc1 [Compound 33, (Z)-2-(5-(4-(Dimethylamino)benzylidene)-2,4-dioxothiazolidin-3-yl)acetic Acid]
Second: O=C(O)CN1C(=O)S/C(=C\c2ccncc2)C1=O [Compound 36, (Z)-2-(2,4-Dioxo-5-(pyridin-4-ylmethylene)thiazolidin-3-yl)acetic Acid]
The IC50 of the first is higher: greater than 500 µM for the first, 90.2 µM for the second.

Going from O=C(O)CN1C(=O)S/C(=C\c2ccc(O)cc2O)C1=O [Compound 21, 2-(5-(2,4-Dihydroxybenzylidene)-2,4-dioxothiazolidin-3-yl)acetic Acid] to O=C(O)CN1C(=O)S/C(=C\c2ccccc2O)C1=O [Compound 14, (Z)-2-(5-(2-Hydroxybenzylidene)-2,4-dioxothiazolidin-3-yl)acetic Acid], the IC50 falls from 162 µM to 79.7 µM (2-fold).

COc1cccc(/C=C2\SC(=O)N(CC(=O)O)C2=O)c1 [Compound 4, (Z)-2-(5-(3-Methoxybenzylidene)-2,4-dioxothiazolidin-3-yl)acetic Acid] and COc1ccc(/C=C2\SC(=O)N(CC(=O)O)C2=O)cc1OC [Compound 23, 2-(5-(3,4-Dimethoxybenzylidene)-2,4-dioxothiazolidin-3-yl)acetic Acid] are within 1.5-fold of each other in IC50: 110 µM for the first, 116 µM for the second.

O=C(O)CN1C(=O)S/C(=C\c2cc([N+](=O)[O-])ccc2O)C1=O [Compound 15, (Z)-2-(5-(2-Hydroxy-5-nitrobenzylidene)-2,4-dioxothiazolidin-3-yl)acetic Acid] and COc1cccc(/C=C2\SC(=O)N(CC(=O)O)C2=O)c1O [Compound 16, (Z)-2-(5-(2-Hydroxy-3-methoxybenzylidene)-2,4-dioxothiazolidin-3-yl)acetic Acid] are within 1.5-fold of each other in IC50: 152 µM for the first, 127 µM for the second.

O=C(O)CN1C(=O)S/C(=C\c2cccc3ccccc23)C1=O [Compound 38, (Z)-2-(5-(Naphthalen-1-ylmethylene)-2,4-dioxothiazolidin-3-yl)acetic Acid] and O=C(O)CN1C(=O)S/C(=C\c2ccc(OCc3ccccc3)cc2)C1=O [Compound 41] are within 1.5-fold of each other in IC50: 97 µM for the first, 71.4 µM for the second.

First: COc1ccc(/C=C2\SC(=O)NC2=O)cc1 [Compound 45, (Z)-5-(4-Methoxybenzylidene)thiazolidine-2,4-dione]
Second: COc1ccc(/C=C2\SC(=S)NC2=O)cc1 [Compound 46, (Z)-5-(4-Methoxybenzylidene)-2-thioxothiazolidin-4-one]
The IC50 of the first is lower: 70.8 µM for the first, greater than 250 µM for the second.

Going from COc1ccc(/C=C2\SC(=N)NC2=O)cc1 [Compound 48, (Z)-2-Imino-5-(4-methoxybenzylidene)thiazolidin-4-one] to COc1ccc(/C=C2\SC(=O)N(Cc3nnn[nH]3)C2=O)cc1 [Compound 49, (Z)-3-((1H-Tetrazol-5-yl)methyl)-5-(4-methoxybenzylidene)thiazolidine-2,4-dione], the IC50 falls from 156 µM to 89.1 µM (1.8-fold).

O=C(O)CN1C(=O)S/C(=C\c2c[nH]cn2)C1=O [Compound 32, (Z)-2-(5-((1H-Imidazol-4-yl)methylene)-2,4-dioxothiazolidin-3-yl)acetic Acid] and O=C1NC(=O)/C(=C/c2ccccc2O)S1 [Compound 19, (Z)-5-(2-Hydroxybenzylidene)thiazolidine-2,4-dione] are within 1.5-fold of each other in IC50: 94 µM for the first, 125 µM for the second.
